Results taken from PMC12392461, “Beyond Estrogenicity: A Comparative Assessment of Bisphenol A and Its Alternatives in In Vitro Assays Questions Safety of Replacements” (Environmental Science & Technology, 2025).
Read-outs that look alike come from different tables or passages of the source.

What was measured:
Estrogen Receptor ERα [1] = target: T1, Estrogen Receptor ERα (Homo sapiens, UniProt P03372); assay: cell-based; details: for EC10, linear transformed / EC10, linear / logEC10: dosing range all; for EC10, ERα (M): 10% of maximum effect of E2; for SR-ScoreERα: SR-Score, sigma k=1, x=5; for Efficacy % / EC10 / REPBPA: This Study; for EC10: ERα; for REPBPA: relative estrogenic potency vs BPA; for Specificity ratio (SRbaseline) SRERα: against baseline cytotoxicity; for Specificity ratio (SRcytotoxicity) SRERα: against experimental cytotoxicity; for EC10, ERα: effect; for log(1/EC10) ERα: input of the ToxPi score, values up to 1.00; for Relative effect potency REPERα: relative to BPA; for REPBPA,ERα (relative effect potency in relation to BPA): EC10,BPA/EC10,BPx
T1 sequence (P03372 311-547 limits assumed): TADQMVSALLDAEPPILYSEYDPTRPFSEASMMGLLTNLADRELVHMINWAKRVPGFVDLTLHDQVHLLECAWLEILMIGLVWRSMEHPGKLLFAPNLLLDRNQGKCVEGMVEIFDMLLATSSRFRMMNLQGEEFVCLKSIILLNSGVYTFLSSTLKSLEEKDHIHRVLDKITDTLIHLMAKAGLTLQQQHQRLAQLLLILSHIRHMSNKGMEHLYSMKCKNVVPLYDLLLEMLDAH
In short: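 Reporter cells (ERα-UAS-bla GripTite; PPARγ-UAS-bla) grew 24 h at 37 °C, 5% CO₂ in medium containing 2% charcoal-stripped FBS. Cytotoxicity, tracked as IncuCyte confluency, capped data at IC10 for EC10 derivation. Emax% is the fitted log-logistic maximum expressed against the reference chemical's maximum.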

Estrogen Receptor ERα [2] = target: T1, Estrogen Receptor ERα; assay: aCYP oxidation followed by ERα-UAS-bla GripTite assay (TK-Ratio of effect); type: cell-based; details: for EC10, after oxidation / EC10, before oxidation: ERα, in M; for EC10, after oxidation: after abiotic CYP catalyst; for TKERα: TKERα-Ratio
Procedure: Cell culture conditions and bioassay protocols including response detection are provided in Text S2.1–2.4 and Table S3. − Cell viability was determined from cell confluency using an IncuCyte S3 Live-Cell Analysis System (Sartorius AG, Essen, Germany) before and after exposure, except for SH-SY5Y cells (live–dead staining with Nuclear Green LcS1 and propidium iodide, Abcam, UK). For metabolic activation experiments, cell viability was assessed using the ToxBLAzer DualScreen Kit (Thermo Fisher Scientific) to capture the remaining toxicity in ERα-UAS-bla GripTite after treatment with the aCYP catalyst (details in Text S2.4). […]
The TK-Ratio method was used to evaluate the impact of abiotic CYP oxidation on the potency of tested compounds. […]
For experiments with the preceding aCYP activation, ERα cell viability was additionally calculated from the readout of the ToxBLAzer reagent. The ToxBLAzer assay was conducted following the manufacturer's instructions (Thermo Fisher, Waltham, MA, U.S.).13 Fluorescence intensity was recorded at the start of the assay ( Fwavelength(0h)) and after a 2-hour incubation at […]
Cell viability was assessed based on the red fluorescence signal at 665 nm, applying eq. S11 for normalization.
Cell viability = F665nm(2h, sample)-F665nm(0h, average cell-free) (S11) F665nm(2h, average unexposed)-F665nm(0h, average cell-free) […]
the specific endpoint to avoid artifacts from cytotoxicity burst. 15
S2.5: Concentration-response curves (CRCs)
To avoid bias from cytotoxicity burst at higher concentrations, all concentrations exceeding the IC10 for cytotoxicity were excluded in the CRC modeling of effects but otherwise cytotoxicity and effects were fitted with the same model equations (response stands for cytotoxicity or effect). For ERα, AhR, ARE and PPARγ preferably a linear model was fitted to the linear portion of CRC up to maximum 30% effect (eq. S12),16 but in some cases it was necessary to choose a sigmoidal log-concentration-response model, specifically a log-logistic model (eq. S13), to derive effect concentrations and cytotoxicity. For mitochondrial toxicity and neurotoxicity, the […]
are not reporter gene assays. Common practice when using log-logistic models, e.g., the model implemented in tcpl package in R,17, 18 is that the minima and maxima are also fitted and only median effect concentrations AC50 are derived. […]
concentrations (EC10) for both linear and log-sigmoidal CRCs to allow absolute comparisons at the same effect level and for TR and SR -analysis. This was done using the AutomatedBioassayScreening19 published by Braun et al.,20 which also included an algorithm to choose the best model between eq. S12 and eq. S13.
Response (%) = slope × C (S12) […]
logEC =logEC − 1 ∙log (max−min − 100%) (S14)

[3] = Octanol-water partition constant (log Kow) measurement, Sirius T3 potentiometric log P; type: physicochemical; details: experimental, this study
Procedure: Physicochemical properties provide input parameters for the baseline toxicity model. Acidity constants (pK a) and octanol–water partition constants of the neutral species (K ow) were measured with a Sirius T instrument from Pion Inc. (Sussex, UK) (Text S1.2 and Table S1). A detailed description of the pK a and K ow measurements can be found in literature. , […]
S1.2: pKa and log Kow measurements […]
titrator (Pion Inc., Sussex, U.K.). […]
UV absorbance. For log Kow measurement, approximately 1 mg of test chemical was added to a sample vial and the measurement was done automatically via the potentiometric log P protocol. Briefly, each compound is titrated thrice in an immiscible biphasic system of octanol and phosphate buffer solution and pH is continuously recorded. The shift in p Ka -values was used to estimate the log Kow values.2, 3 Data processing was performed with Sirius T3 Refine software (version 2.0.0.0.), and the final p Ka and log Kow values were calculated as the average of three titrations. To ensure reproducibility, measurements were conducted on at least two

[4] = ERα bioassay, linear model, in M
[5] = ERα bioassay, log-logistic model
[6] = Bioassay ERα, linear model fit, in M
[7] = Bioassay ERα, log-logistic model fit

SMILES	EC10, before oxidation (Estrogen Receptor ERα [2]; Table S10)	EC10, ERα (M) (Estrogen Receptor ERα [1])	logEC10 (Estrogen Receptor ERα [1]; [7])	SR-ScoreERα (Estrogen Receptor ERα [1])	Efficacy % (Estrogen Receptor ERα [1])	EC10 (Estrogen Receptor ERα [1]; in M)	REPBPA (Estrogen Receptor ERα [1])	Specificity ratio (SRbaseline) SRERα (Estrogen Receptor ERα [1])	EC10, ERα (Estrogen Receptor ERα [1])	log(1/EC10) ERα (Estrogen Receptor ERα [1])	Relative effect potency REPERα (Estrogen Receptor ERα [1])	log Kow used [3]	further results
CC1(C)[C@H](O)C(C)(C)[C@H]1O [Trans TMCD]													EC10, linear transformed (Estrogen Receptor ERα [1]; ERα bioassay, in M): 3.18E-03; EC10, linear (Estrogen Receptor ERα [1]; [4]): 3.03E-03; logEC10 (Estrogen Receptor ERα [1]; [5]): -2.47
CC(C)c1cc(C(C)(C)c2ccc(O)c(C(C)C)c2)ccc1O [BPG, 2,2-Bis(4-hydroxy-3-isopropylphenyl)propane]	9.02E-07	9.02 × 10^–7 M	-6.04	0.94	19.01%	9.02E-07	4.11E-01	1.60	0.902 µM	0.77	0.41		EC10, after oxidation (Estrogen Receptor ERα [2]; Table S10): 3.40E-06; TKERα (Estrogen Receptor ERα [2]; Table S10): 0.2649; EC10, after oxidation (Estrogen Receptor ERα [2]; Table S11): 1.51E-05; EC10, before oxidation (Estrogen Receptor ERα [2]; Table S11): 9.71E-06; TKERα (Estrogen Receptor ERα [2]; Table S11): 0.64; EC10, linear transformed (Estrogen Receptor ERα [1]; Bioassay ERα, in M): 9.02E-07; EC10, linear (Estrogen Receptor ERα [1]; [6]): 9.31E-07; Specificity ratio (SRcytotoxicity) SRERα (Estrogen Receptor ERα [1]): 7.71; Emax (Estrogen Receptor ERα [1]; read-out: Emax%ERα, maximum efficacy relative to E2): 19%
CC(C)(c1cc(Br)c(O)c(Br)c1)c1cc(Br)c(O)c(Br)c1 [TBBPA, 3,3',5,5'-Tetrabromobisphenol A]												5.91	
CC(C)Oc1ccc(S(=O)(=O)c2ccc(O)cc2)cc1 [D8, 4-((4-Isopropoxyphenyl)sulfonyl)phenol]	1.21E-05	1.12 × 10^–5 M	-4.95	1.00	18.50%	1.12E-05	3.29E-02	5.88	11.2 µM	0.63	0.0329		EC10, linear transformed (Estrogen Receptor ERα [1]; Bioassay ERα, in M): 1.21E-05; EC10, linear (Estrogen Receptor ERα [1]; [6]): 1.41E-05; REPBPA,ERα (relative effect potency in relation to BPA) (Estrogen Receptor ERα [1]): 0.033; Specificity ratio (SRcytotoxicity) SRERα (Estrogen Receptor ERα [1]): 16.41; Emax (Estrogen Receptor ERα [1]; read-out: Emax%ERα): 18%
CC(c1ccc(O)cc1)c1ccc(O)cc1 [BPE, 4,4′-Ethylidenbisphenol]												4.05	
CC1(C)C(O)C(C)(C)C1O (racemic) [r-TMCD, 2,2,4,4-Tetramethyl-1,3-cyclobutanediol (racemate)]	1.18E-02	1.29 × 10^–2 M		0.00722	<20%	1.29E-02	2.88E-05	0.08	12900 µM	0.24	2.88e-5		REPBPA,ERα (relative effect potency in relation to BPA) (Estrogen Receptor ERα [1]): 2.9 × 10^–5; EC10, linear transformed (Estrogen Receptor ERα [1]; ERα bioassay, in M): 1.18E-02; EC10, linear (Estrogen Receptor ERα [1]; [4]): 1.29E-02; logEC10 (Estrogen Receptor ERα [1]; [5]): -1.93
Oc1ccc(C(c2ccc(O)cc2)(C(F)(F)F)C(F)(F)F)cc1 [BPAF, 4,4'-(1,1,1,3,3,3-Hexafluoropropane-2,2-diyl)diphenol]												4.72	
O=S(=O)(c1ccc(O)cc1)c1ccc(OCc2ccccc2)cc1 [BPS-MPE, 4-[4-(benzyloxy)benzenesulfonyl]phenol]			no effect									4.28	EC10, linear (Estrogen Receptor ERα [1]; Bioassay ERα, linear model fit): no effect; ERα activation (Estrogen Receptor ERα [1]; at noncytotoxic concentrations): did not activate ERα at noncytotoxic concentrations
